Measurements: the NIST ThermoML archive (doi:10.1021/je060339m)
Numbers after ± are expanded uncertainties.

Conditions: Liquid

CCCOC(C)=O [propyl ethanoate]
Conditions | mass density [kg/m3]
343.15 K, 2000 kPa | 833.7 ± 3.5
343.15 K, 3000 kPa | 834.9 ± 3.7
343.15 K, 3300 kPa | 835.3 ± 3.7
343.15 K, 5000 kPa | 837.6 ± 3.9
343.15 K, 10000 kPa | 843.6 ± 4.5
343.15 K, 15000 kPa | 849.1 ± 5.1
343.15 K, 20000 kPa | 854.3 ± 5.7
343.15 K, 25000 kPa | 859.2 ± 6.3
343.15 K, 30000 kPa | 865 ± 6.9
343.15 K, 35000 kPa | 871.2 ± 7.5
348.15 K, 100 kPa | 825.6 ± 3.3
348.15 K, 1000 kPa | 826.8 ± 3.4
348.15 K, 2000 kPa | 828.1 ± 3.5
348.15 K, 3000 kPa | 829.5 ± 3.7
348.15 K, 3300 kPa | 829.9 ± 3.7
348.15 K, 5000 kPa | 832.2 ± 3.9
348.15 K, 10000 kPa | 838.3 ± 4.5
348.15 K, 15000 kPa | 844.1 ± 5.1
348.15 K, 20000 kPa | 849.5 ± 5.7
348.15 K, 25000 kPa | 854.5 ± 6.3
348.15 K, 30000 kPa | 860.6 ± 6.9
348.15 K, 35000 kPa | 866.8 ± 7.5
353.15 K, 100 kPa | 820 ± 3.3
353.15 K, 1000 kPa | 821.2 ± 3.4
353.15 K, 2000 kPa | 822.6 ± 3.5
353.15 K, 3000 kPa | 824 ± 3.7
353.15 K, 3300 kPa | 824.4 ± 3.7
353.15 K, 5000 kPa | 826.9 ± 3.9
353.15 K, 10000 kPa | 833.3 ± 4.5
353.15 K, 15000 kPa | 838.8 ± 5.1
353.15 K, 20000 kPa | 844.8 ± 5.7
353.15 K, 25000 kPa | 850 ± 6.3
353.15 K, 30000 kPa | 856.4 ± 6.9
353.15 K, 35000 kPa | 862.7 ± 7.5
358.15 K, 100 kPa | 811.6 ± 3.3
358.15 K, 1000 kPa | 812.9 ± 3.4
358.15 K, 2000 kPa | 814.4 ± 3.5
358.15 K, 3000 kPa | 815.8 ± 3.7
358.15 K, 3300 kPa | 816.3 ± 3.7
358.15 K, 5000 kPa | 818.6 ± 3.9
358.15 K, 10000 kPa | 825.3 ± 4.5
358.15 K, 15000 kPa | 831.5 ± 5.1
358.15 K, 20000 kPa | 837.2 ± 5.7
358.15 K, 25000 kPa | 842.8 ± 6.3
363.15 K, 100 kPa | 804.8 ± 3.3
363.15 K, 1000 kPa | 806.9 ± 3.4
363.15 K, 2000 kPa | 808.4 ± 3.5
363.15 K, 3000 kPa | 810 ± 3.7
363.15 K, 3300 kPa | 810.4 ± 3.7
363.15 K, 5000 kPa | 812.9 ± 3.9
363.15 K, 10000 kPa | 819.9 ± 4.5
363.15 K, 15000 kPa | 826.2 ± 5.1
363.15 K, 20000 kPa | 832.1 ± 5.7
363.15 K, 25000 kPa | 837.7 ± 6.3
363.15 K, 30000 kPa | 844.4 ± 6.9
368.15 K, 1000 kPa | 801 ± 3.4
368.15 K, 2000 kPa | 802.7 ± 3.6
368.15 K, 3000 kPa | 804.3 ± 3.7
368.15 K, 3300 kPa | 804.8 ± 3.7
368.15 K, 5000 kPa | 807.4 ± 3.9
368.15 K, 10000 kPa | 814.6 ± 4.5
368.15 K, 15000 kPa | 821.2 ± 5.1
368.15 K, 20000 kPa | 827.3 ± 5.7
368.15 K, 25000 kPa | 833.1 ± 6.3
373.15 K, 1000 kPa | 795.5 ± 3.4
373.15 K, 2000 kPa | 797.2 ± 3.6
373.15 K, 3000 kPa | 798.9 ± 3.7
373.15 K, 3300 kPa | 799.5 ± 3.7
373.15 K, 5000 kPa | 802.3 ± 3.9
373.15 K, 10000 kPa | 809.8 ± 4.5
373.15 K, 15000 kPa | 816.6 ± 5.1
373.15 K, 20000 kPa | 822.9 ± 5.7
373.15 K, 25000 kPa | 828.9 ± 6.3
378.15 K, 1000 kPa | 789.4 ± 3.4
378.15 K, 2000 kPa | 791.3 ± 3.6
378.15 K, 3000 kPa | 793 ± 3.7
378.15 K, 3300 kPa | 793.6 ± 3.7
378.15 K, 5000 kPa | 796.3 ± 3.9
378.15 K, 10000 kPa | 803.3 ± 4.5
378.15 K, 15000 kPa | 811.3 ± 5.1
378.15 K, 20000 kPa | 817.7 ± 5.7
378.15 K, 25000 kPa | 824 ± 6.3
378.15 K, 30000 kPa | 831.2 ± 6.9
383.15 K, 1000 kPa | 783.6 ± 3.5
383.15 K, 2000 kPa | 785.5 ± 3.6
383.15 K, 3000 kPa | 787.3 ± 3.7
383.15 K, 3300 kPa | 788.2 ± 3.7
383.15 K, 5000 kPa | 791.2 ± 3.9
383.15 K, 10000 kPa | 799.2 ± 4.5
383.15 K, 15000 kPa | 806.6 ± 5.1
383.15 K, 20000 kPa | 813.2 ± 5.8
383.15 K, 25000 kPa | 819.7 ± 6.4
388.15 K, 1000 kPa | 777.9 ± 3.5
388.15 K, 2000 kPa | 779.8 ± 3.6
388.15 K, 3000 kPa | 781.6 ± 3.7
388.15 K, 3300 kPa | 782.1 ± 3.8
388.15 K, 5000 kPa | 785.4 ± 4
388.15 K, 10000 kPa | 793.8 ± 4.6
388.15 K, 15000 kPa | 801.5 ± 5.2
388.15 K, 20000 kPa | 808.5 ± 5.8
388.15 K, 25000 kPa | 815.2 ± 6.4
388.15 K, 30000 kPa | 823.2 ± 7
393.15 K, 1000 kPa | 771.8 ± 3.5
393.15 K, 2000 kPa | 773.9 ± 3.6
393.15 K, 3000 kPa | 775.9 ± 3.7
393.15 K, 3300 kPa | 776.4 ± 3.8
393.15 K, 5000 kPa | 779.7 ± 4
393.15 K, 10000 kPa | 788.6 ± 4.6
393.15 K, 15000 kPa | 796.5 ± 5.2
393.15 K, 20000 kPa | 803.8 ± 5.8
393.15 K, 25000 kPa | 810.7 ± 6.4
